Measurements from ChEMBL document CHEMBL5727810, “GLP-1 receptor agonists and uses thereof” (2020).

How the values were obtained:
[1] = CHO GLP-1R Clone C6 Assay 2: GLP-1R-mediated agonist activity was determined with a cell-based functional assay utilizing an HTRF (Homogeneous Time-Resolved Fluorescence) cAMP detection kit (cAMP HI Range Assay Kit; Cis Bio cat #62AM6PEJ) that measures cAMP levels in the cell. The method is a competitive immunoassay between native cAMP produced by the cells and exogenous cAMP labeled with the dye …
Description: The method is a competitive immunoassay between native cAMP produced by the cells and exogenous cAMP labeled with the dye d2. The tracer binding is visualized by a mAb anti-cAMP labeled with Cryptate. The specific signal (i.e. energy transfer) is inversely proportional to the concentration of cAMP in either a standard or an experimental sample.The human GLP-1R coding sequence (NCBI Reference Sequence NP_002053.3, including naturally-occurring variant Leu260Phe) was subcloned into pcDNA5-FRT-TO and a clonal CHO cell line stably expressing a low receptor density was isolated using the Flp-In™ T-Rex™ System, as described by the manufacturer (ThermoFisher). […] Following the 30 minute incubation, 10 μL of labeled d2 cAMP and 10 μL of anti-cAMP antibody (both diluted 1:20 in cell lysis buffer; as described in the manufacturer's assay protocol) were added to each well of the assay plate. […] Raw data were converted to nM cAMP by interpolation from a cAMP standard curve (as described in the manufacturer's assay protocol) and the percent effect was determined relative to a saturating concentration of the full agonist GLP-1 (1 μM) included on each plate. EC50 determinations were made from agonist dose response curves analyzed with a curve fitting program using a 4-parameter logistic dose response equation.

[2] = CHO GLP-1R Clone H6 Assay 1: GLP-1R-mediated agonist activity was determined with a cell-based functional assay utilizing an HTRF (Homogeneous Time-Resolved Fluorescence) cAMP detection kit (cAMP HI Range Assay Kit; CisBio cat #62AM6PEJ) that measures cAMP levels in the cell. The method is a competitive immunoassay between native cAMP produced by the cells and exogenous cAMP labeled with the dye …
Description: The method is a competitive immunoassay between native cAMP produced by the cells and exogenous cAMP labeled with the dye d2. The tracer binding is visualized by a mAb anti-cAMP labeled with Cryptate. […] A 1 mL sample of the cell suspension in growth media was counted on a Becton Dickinson ViCell to determine cell viability and cell count per mL. […] Following the 30 minute incubation, 10 μL of labeled d2 cAMP and 10 μL of anti-cAMP antibody (both diluted 1:20 in cell lysis buffer; as described in the manufacturer's assay protocol) were added to each well of the assay plate. […] Raw data were converted to nM cAMP by interpolation from a cAMP standard curve (as described in the manufacturer's assay protocol) and the percent effect was determined relative to a saturating concentration of the full agonist GLP-17-36 (1 μM) included on each plate. EC50 determinations were made from agonist dose-response curves analyzed with a curve fitting program using a 4-parameter logistic dose response equation.

Compound | EC50 [1] [nM] | EC50 [2] [nM]
COCCn1c(CN2CCN(c3cccc4c3O[C@H](c3ccc(Cl)cc3F)O4)CC2)nc2ccc(C(=O)OC)cc21 | > 20000 | 880
COCCn1c(CN2CCN(c3cccc4c3O[C@@H](c3ccc(Cl)cc3F)O4)CC2)nc2ccc(C(=O)OC)cc21 | 260 | 6.6
COCCn1c(CN2CCC(c3cccc4c3OC(c3ccc(Cl)cc3F)O4)CC2)nc2ccc(C(=O)O)cc21 (single isomer, unassigned) | > 20000 | 
C[C@]1(c2ccc(Cl)cc2F)Oc2cccc(C3CCN(Cc4nc5ccc(C(=O)O)cc5n4Cc4ncco4)CC3)c2O1 | 38 | 4.5

More lines, now with the values ahead:

EC50 [1] [nM] | EC50 [2] [nM] | Compound
> 20000 |  | COCCn1c(C2CC23CCN(c2cccc4c2OC(C)(c2ccc(Cl)cc2F)O4)CC3)nc2ccc(C(=O)O)cc21 (configuration not stated)
120 | 7.7 | COCCn1c([C@H]2CC23CCN(c2cccc4c2OC(C)(c2ccc(Cl)cc2F)O4)CC3)nc2ccc(C(=O)OC)cc21 (some centres not stated)
> 20000 | > 18000 | COCCn1c([C@@H]2CC23CCN(c2cccc4c2OC(C)(c2ccc(Cl)cc2F)O4)CC3)nc2ccc(C(=O)OC)cc21 (some centres not stated)
